As usually defined, the EC50 is the concentration giving half of the maximal effect. By IC50 is commonly meant the concentration at which inhibition is half-maximal.

These results are taken from patent publication US9650339B2, “Inhibitors of histone demethylases” (Gilead Sciences, Inc., priority 2013, dated 2017).

One assay has as its system MCF7 cells. Description: Cell proliferation assay MCF7. Format: cell-based. The following applies: MCF7 human breast cancer cells; 120 hours; ATPlite 1 Step. The gist of the method: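 Cells grown 24 h in DMEM GlutaMAX/10% FBS, then exposed to compounds in duplicate (≤0.5% DMSO) for 120 h. Viability read as ATP luminescence (ATPlite 1 Step). Seeding set to reach ~90% confluence at harvest.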
Background: In ATP-based viability assays light output follows the ATP content of the culture.

For the next assay, the target named is KDM6A (UTX) (Homo sapiens, UniProt O15550). The experiment in a line: Histone lysine demethylase AlphaLISA assay, KDM6A. The format is biochemical. The following applies: read-out: KDM6A HDME Inhibition IC50. The essentials: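 Each enzyme was pre-incubated 10 min in buffer, then 10 min with compound in 3% DMSO solution. The reaction started with biotinylated histone H3 peptide substrate plus 25 μM L-ascorbate and 10 μM α-KG at room temperature. Detection used AlphaLISA acceptor beads, then streptavidin donor beads, in the dark.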
Sequence of KDM6A (UTX) (O15550 919-1401): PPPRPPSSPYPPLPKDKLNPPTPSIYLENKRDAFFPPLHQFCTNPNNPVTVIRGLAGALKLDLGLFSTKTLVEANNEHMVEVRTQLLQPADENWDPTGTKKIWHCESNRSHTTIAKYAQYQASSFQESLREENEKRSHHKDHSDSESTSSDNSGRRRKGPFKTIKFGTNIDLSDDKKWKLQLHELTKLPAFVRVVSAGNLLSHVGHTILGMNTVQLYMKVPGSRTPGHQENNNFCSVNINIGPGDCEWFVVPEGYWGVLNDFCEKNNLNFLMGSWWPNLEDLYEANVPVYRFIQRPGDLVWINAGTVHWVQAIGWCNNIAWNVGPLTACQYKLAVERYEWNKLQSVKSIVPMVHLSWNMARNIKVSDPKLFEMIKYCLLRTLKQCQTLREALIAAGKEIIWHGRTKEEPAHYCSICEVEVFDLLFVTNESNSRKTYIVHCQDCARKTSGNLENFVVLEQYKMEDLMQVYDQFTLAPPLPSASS
For orientation: In Alpha technology, singlet oxygen from a donor bead excites a nearby acceptor bead.

The target of the next assay is T1, KDM4B (JMJD2B) (Homo sapiens, UniProt O94953).
T1 construct: 2-500; purchased BPS; host or cells: Bac (baculovirus system)
T1 sequence (O94953 2-500): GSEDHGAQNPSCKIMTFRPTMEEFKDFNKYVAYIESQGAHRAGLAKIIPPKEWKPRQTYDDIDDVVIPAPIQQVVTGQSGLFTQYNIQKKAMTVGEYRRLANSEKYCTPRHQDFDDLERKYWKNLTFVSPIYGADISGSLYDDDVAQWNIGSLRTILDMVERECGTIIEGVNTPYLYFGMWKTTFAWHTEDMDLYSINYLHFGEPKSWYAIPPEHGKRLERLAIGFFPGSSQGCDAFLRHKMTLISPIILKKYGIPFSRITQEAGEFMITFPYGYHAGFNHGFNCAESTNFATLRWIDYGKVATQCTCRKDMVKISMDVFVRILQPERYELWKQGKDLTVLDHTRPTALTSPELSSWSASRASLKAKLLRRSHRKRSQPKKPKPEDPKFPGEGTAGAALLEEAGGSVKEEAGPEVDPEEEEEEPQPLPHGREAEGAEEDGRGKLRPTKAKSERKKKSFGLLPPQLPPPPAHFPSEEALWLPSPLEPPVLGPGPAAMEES
Description: Histone lysine demethylase AlphaLISA assay, KDM4B. The format is biochemical. The conditions noted are these: read-out: KDM4B HDME Inhibition IC50. How it is done: Assays are performed analogously to the protocol described by PerkinElmer (Roy et al. PerkinElmer Technical Note: AlphaLISA #12, April 2011)
Enzymes are dissolved in enzyme buffer and incubated for 10 min before being added to 3% DMSO solutions of compounds in enzyme buffer. Incubated for another 10 minutes, before substrate solution is added and the reaction mixture is incubated at room temperature. 10 μL acceptor beads, suspended in Epigenetic Buffer (Perkin Elmer AL008) from stock, are added and the suspension is incubated in the dark at room temperature, before a suspension of streptavidin donor beads (Perkin Elmer 6760002) in Epigenetic Buffer is added. After incubation at room temperature in the dark the plates are read.
BK9M3: Biotin-ARTKQTAR(KMe3)STGGKAPRKQ-NH2 (Caslo, Denmark) […]
Substrate Solution: Substrate, 25 μM L-Asc, and 10 μM α-KG in Buffer A.

The subject of the next assay is H3K4me3 mark. The experiment in a line: Histone lysine demethylase immunofluorescence assay, non-transfected U2OS cells. The conditions noted are these: Homo sapiens, staining of the H3K4me3 mark, 20 hours incubation with compound. Format: cell-based. The protocol:
U2OS cells were harvested and seeded into multi well plates into media containing compound. The media used was DMEM containing 5% FBS and pen/strep. 20 hours after incubation of cells with compounds, the cells were washed once in PBS, harvested by fixation with formaldehyde 4% aqueous solution, and washed in PBS. Subsequently, the cells were permeabilized in PBS with 0.2% Triton X-100. Blocking was performed in PBS with 0.2% Triton X-100 and 5% FBS. The cells were incubated with αH3K4me3 primary antibody (Cell Signaling, #9751S) in blocking solution over night at 4° C. After incubation with primary antibody, the cells were washed with PBS, incubated with secondary antibody (Alexa fluor 594 goat anti rabbit IgG, Invitrogen, A11012) and Hoechst, (Sigma, 33342) in blocking solution, and washed again with PBS. Finally, PBS was added and high throughput imaging and analysis were performed by an IN Cell Analyzer 1000 (GE Healthcare). The IC50 values were based on an average measure of the staining of the H3K4me3 mark in cells.

Each structure is given as a SMILES string.

Molecule `CN(C)C/C=C/CNCc1cc(C=O)ccn1` [Compound 98, 2-({[(2E)-4-(dimethylamino)but-2-en-1-yl]amino}-methyl)pyridine-4-carbaldehyde] yielded an EC50 in the assay with MCF7 cells of less than 250 nM. For the same molecule, the 50% inhibitory concentration (IC50) on KDM6A (UTX) and at KDM4B (JMJD2B) was more than 2500 nM in each case.
Molecule `O=Cc1ccnc(CNCC(=O)N2CCC[C@@H]2CN2CCCC2)c1` [Compound 102, 2-[({2-oxo-2-[(2R)-2-(pyrrolidin-1-ylmethyl)pyrrolidin-1-yl]ethyl}amino)-methyl]pyridine-4-carbaldehyde] gave a 50% effective concentration (EC50) in the assay on MCF7 cells of 250 to 2500 nM. For the same molecule, the IC50 at KDM6A (UTX) is more than 2500 nM; on KDM4B (JMJD2B) it was 250 to 2500 nM.
In the assay with MCF7 cells, `CN(C)CCC/N=C/c1ccnc(CNCCCN(C)C)c1` [Compound 37, [3-(dimethylamino)propyl]-({4-[{[3-(dimethylamino)propyl]-imino}methyl]pyridin-2-yl}methyl)amine] yielded an EC50 of less than 250 nM. Moreover, the concentration for half-maximal inhibition (IC50) at KDM4B (JMJD2B) lay in the range of 250 to 2500 nM.
Turning to `CN(C)C/C=C\CNCc1cc(C=O)ccn1` [Compound 99, 2-({[(2Z)-4-(dimethylamino)-but-2-en-1-yl]amino}methyl)-pyridine-4-carbaldehyde], in the assay on MCF7 cells, the EC50 is more than 2500 nM. Further, the IC50 at KDM6A (UTX) is more than 2500 nM; in the assay with H3K4me3 mark it was 250 to 2500 nM.
In the assay on MCF7 cells, `CCN(CC(C)(C)N(C)C)C(=O)CNCc1cc(C=O)ccn1` [Compound 118, N-[2-(dimethylamino)-2-methylpropyl]-N-ethyl-2-{[(4-formylpyridin-2-yl)methyl]amino}-acetamide] came in with a 50% effective concentration (EC50) of less than 250 nM. For the same molecule, the IC50 on KDM6A (UTX) was more than 2500 nM; in the assay with H3K4me3 mark, less than 250 nM.
`CCN(CCN(C)C)C(=O)CNCc1cc(/C=N/CCO)ccn1` [Compound 66] gave an EC50 in the assay on MCF7 cells of less than 250 nM. Besides, the half-maximal inhibitory concentration (IC50) on KDM6A (UTX) is more than 2500 nM; on KDM4B (JMJD2B), less than 250 nM.
Molecule `CCN(CC)CCCCNCc1cc(/C=N/CCOC)ccn1` [Compound 60, [4-(diethylamino)butyl]-({4-[[(2-methoxyethyl)imino]-methyl]pyridin-2-yl}methyl)amine] showed a 50% effective concentration (EC50) in the assay on MCF7 cells of less than 250 nM. For the same molecule, the figures for the IC50 at KDM6A (UTX) and at KDM4B (JMJD2B) were more than 2500 nM and less than 250 nM, respectively.
`CCN(CCN(C)C)C(=O)CNCc1cc(C2OCC(Cc3ccccc3)CN2C(=O)C(F)(F)F)ccn1` (centres unmarked) [Compound 90, 2-[({4-[5-benzyl-3-(trifluoroacetyl)-1,3-oxazinan-2-yl]pyridin-2-yl}methyl)amino]-N-[2-(dimethylamino)-ethyl]-N-ethylacetamide] came in with a concentration giving a half-maximal response (EC50) in the assay on MCF7 cells of less than 250 nM. The IC50 is more than 2500 nM on KDM6A (UTX) and less than 250 nM in the assay with H3K4me3 mark.
`CCN(CC)CCCCNCc1cc(C2NCCN2C)ccn1` (centres unmarked) [Compound 65, [4-(diethylamino)-butyl]({[4-(1-methylimidazolidin-2-yl)pyridin-2-yl]methyl})amine] had an EC50 in the assay on MCF7 cells of less than 250 nM. Moreover, the IC50 on KDM6A (UTX) and at KDM4B (JMJD2B) was more than 2500 nM in each case.
As for `CN(C)CC1CCC(CNCc2cc(C=O)ccn2)CC1` (centres unmarked) [Compound 97, 2-{[({4-[(dimethylamino)-methyl]cyclohexyl}-methyl)amino]-methyl}pyridine-4-carbaldehyde], the EC50 in the assay on MCF7 cells is 250 to 2500 nM. Also, the IC50 is more than 2500 nM on KDM6A (UTX) and less than 250 nM with H3K4me3 mark.
The molecule `CCN(CCN(C)C)C(=O)CNCc1cc(/C=N/CCC2CCCCC2)ccn1` [Compound 63, 2-[({4-[[(2-cydohexylethyl)-imino]methyl]pyridin-2-yl}methyl)amino]-N-[2-(dimethylamino)-ethyl]-N-ethylacetamide] returned a 50% effective concentration (EC50) in the assay with MCF7 cells of less than 250 nM. Besides, the IC50 at KDM6A (UTX) is more than 2500 nM; on KDM4B (JMJD2B) it was 250 to 2500 nM.
With `CN(C)C(=O)CNCc1cc(/C=N/CCCc2ccccc2)ccn1` [Compound 34, N,N-dimethyl-2-[({4-[[(3-phenylpropyl)imino]-methyl]pyridin-2-yl}methyl)amino]-acetamide], the EC50 with MCF7 cells is more than 2500 nM. The IC50 at KDM6A (UTX) and on KDM4B (JMJD2B) was more than 2500 nM each time.
Turning to `CN1CCN(C(=O)CNCc2cc(C=O)ccn2)CC1` [Compound 103, 2-({[2-(4-methylpiperazin-1-yl)-2-oxoethyl]-amino}methyl)-pyridine-4-carbaldehyde], the IC50 at KDM6A (UTX) and at KDM4B (JMJD2B) was more than 2500 nM in each case.
The molecule `CN(C)CCCCCNCc1cc(CN)ccn1` [Compound 8, [2-({[5-(dimethylamino)pentyl]-amino}methyl)pyridin-4-yl]methanamine] displayed a concentration for a half-maximal effect (EC50) with MCF7 cells of less than 250 nM. Moreover, the IC50 on KDM6A (UTX) and on KDM4B (JMJD2B) was more than 2500 nM throughout.
For the molecule `O=Cc1ccnc(CNCC(=O)N2CCC(Cc3ccccc3)CC2)c1` [Compound 106, 2-({[2-(4-benzylpiperidin-1-yl)-2-oxoethyl]-amino}methyl)-pyridine-4-carbaldehyde], the figures for the IC50 on KDM6A (UTX) and on KDM4B (JMJD2B) were more than 2500 nM and less than 250 nM, respectively.
In the assay with MCF7 cells, `C(=N/C1CC1)/c1ccnc(CNCCCN2CCCC2)c1` [Compound 42, N-{[2-({[3-(pyrrolidin-1-yl)propyl]amino}-methyl)pyridin-4-yl]methylidene}-cyclopropanamine] returned a half-maximal effective concentration (EC50) of less than 250 nM. The IC50 at KDM6A (UTX) is more than 2500 nM; on KDM4B (JMJD2B), 250 to 2500 nM.
In the assay on MCF7 cells, `CCN(CC)CCCCN(Cc1cc(C=O)ccn1)C(=O)C(F)(F)F` [Compound 115, N-[4-(diethylamino)butyl]-2,2,2-trifluoro-N-[(4-formylpyridin-2-yl)methyl]acetamide] showed a 50% effective concentration (EC50) of less than 250 nM. In addition, the 50% inhibitory concentration (IC50) at KDM6A (UTX) was more than 2500 nM; in the assay with H3K4me3 mark, less than 250 nM.
In the assay with MCF7 cells, `CCN(CCN(C)C)C(=O)CNCc1cc(C2OCC3(CC3)CN2C(=O)C(F)(F)F)ccn1` (centres unmarked) [Compound 91, N-[2--(dimethylamino)-ethyl]-N-ethyl-2-[({4-[7-(trifluoroacetyl)-5-oxa-7-azaspiro[2.5]-octan-6-yl]pyridin-2-yl}methyl)amino]-acetamide] showed an EC50 of less than 250 nM. Further, the half-maximal inhibitory concentration (IC50) was more than 2500 nM at KDM6A (UTX) and less than 250 nM with H3K4me3 mark.
As to `CN(CCCNCc1cc(/C=N/C2CC2)ccn1)Cc1ccccc1` [Compound 41, N-({2-[({3-[benzyl(methyl)amino]-propyl}amino)methyl]-pyridin-4-yl}methylidene)-cyclopropanamine], the IC50 at KDM6A (UTX) was more than 2500 nM; at KDM4B (JMJD2B), less than 250 nM.
In the same order, the values of `C#CCN(C)C(=O)CNCc1cc(/C=N/C2CC2)ccn1` [Compound 56, 2-[({4-[N-cyclopropyl-carboximidoyl]-pyridin-2-yl}methyl)amino]-N-methyl-N-(prop-2-yn-1-yl)acetamide] are more than 2500 nM and 250 to 2500 nM.
The matching figures for `CN(C)CCCCNCc1cc(/C=N\C2CC2)ccn1` [Compound 45, N-{[2-({[4-(dimethylamino)butyl]-amino}methyl)-pyridin-4-yl]methylidene}-cyclopropanamine]: more than 2500 nM and 250 to 2500 nM.
In the same order, the values of `CN(C)CCCCNCc1cc(CNC2CC2)ccn1` [Compound 10, N-{[2-({[4-(dimethylamino)butyl]-amino}methyl)pyridin-4-yl]methyl}-cyclopropanamine] are more than 2500 nM and more than 2500 nM.
Regarding `CCN(CC)CCCCNCc1cc(CN)ccn1` [Compound 5, [2-({[4-(diethylamino)butyl]-amino}methyl)pyridin-4-yl]methanamine], the EC50 with MCF7 cells was less than 250 nM. Moreover, the IC50 at KDM6A (UTX) and at KDM4B (JMJD2B) was more than 2500 nM each time.
